The values below come from patent publication US20090105283A1, “3-HYDROQUINAZOLIN-4-ONE DERIVATIVES FOR USE AS STEAROYL CoA DESATURASE INHIBITORS” (priority 2007, published 2009).

The experiment has as its target T1, stearoyl-CoA desaturase (SCD) (Rattus norvegicus, UniProt P07308).
T1 construct: The microsomes were quickly thawed and added to assay buffer so that a concentration of 0.4 mg/ml was achieved; from tissue
T1 sequence (P07308 1-358): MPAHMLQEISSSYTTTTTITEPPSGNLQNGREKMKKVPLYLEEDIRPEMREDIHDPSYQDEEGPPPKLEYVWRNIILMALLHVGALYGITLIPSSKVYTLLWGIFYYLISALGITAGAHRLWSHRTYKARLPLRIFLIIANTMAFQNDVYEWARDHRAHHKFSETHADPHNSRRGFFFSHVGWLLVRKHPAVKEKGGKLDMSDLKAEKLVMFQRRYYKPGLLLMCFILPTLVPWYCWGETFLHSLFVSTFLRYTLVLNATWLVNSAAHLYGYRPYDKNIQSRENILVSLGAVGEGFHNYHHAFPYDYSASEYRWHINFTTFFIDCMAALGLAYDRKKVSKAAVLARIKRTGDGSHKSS
Description: SCD assay with rat liver microsomes ([3H]stearoyl CoA, adapted from Talamo and Bloch). Conditions: Table 2 (Example 21, procedures of Example 20); rat liver microsomes, [3H]stearoyl CoA substrate. The class given is biochemical. The essentials: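 Liver microsomes came from diet-induced male Sprague Dawley rats and were used at 0.2 mg/ml final. Assay buffer was Tris pH 7.2 with NADH, ATP, CoA, MgCl2 and 0.1% BSA. Compounds were preincubated 30 min, then reacted 45 min at room temperature with [3H]stearoyl-CoA; after TCA stop and Bio-Bead cleanup, supernatant radioactivity was counted by scintillation.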
A general note: Microsomes from liver hold many membrane-bound enzymes, among them those of drug oxidation.
Turning to `O=C(CO)Nc1ccc2c(=O)n(CCOc3ccccc3Cl)cnc2c1` [compound 63, N-(3-(2-(2-chlorophenoxy)ethyl)-4-oxo-3,4-dihydroquinazolin-7-yl)-2-hydroxyacetamide], half-maximal inhibition (IC50) was put at 4.9 µM.
For the compound `O=C(CO)Nc1ccc2ncn(CCCCCOc3cc(Cl)ccc3Cl)c(=O)c2c1` [compound 64, N-(3-(5-(2,5-dichlorophenoxy)pentyl)-4-oxo-3,4-dihydroquinazolin-6-yl)-2-hydroxyacetamide], the IC50 – broadly, the concentration that gives 50% inhibition – came out at 1.3 µM.
In the case of `O=C(CO)Nc1ccc2ncn(CCCOc3cccc(Cl)c3Cl)c(=O)c2c1` [compound 65, N-(3-(3-(2,3-dichlorophenoxy)propyl)-4-oxo-3,4-dihydroquinazolin-6-yl)-2-hydroxyacetamide], the IC50 worked out at 0.64 µM.
`O=C(CO)Nc1ccc2ncn(CCCOc3cc(C(F)(F)F)ccc3Cl)c(=O)c2c1` [compound 66, N-(3-(3-(2-chloro-5-(trifluoromethyl)phenoxy)propyl)-4-oxo-3,4-dihydroquinazolin-6-yl)-2-hydroxyacetamide] displayed an IC50 of 11 µM.
Compound `O=C(CO)Nc1ccc2ncn(CCNC(=O)c3cc(Cl)ccc3Cl)c(=O)c2c1` [compound 67, 2,5-dichloro-N-(2-(6-(2-hydroxyacetamido)-4-oxoquinazolin-3(4H)-yl)ethyl)benzamide] had an IC50 of 21 µM.
`O=C(CO)Nc1ccc2ncn(CCCOc3ccccc3)c(=O)c2c1` [compound 68, 2-hydroxy-N-(4-oxo-3-(3-phenoxypropyl)-3,4-dihydroquinazolin-6-yl)acetamide] came in with an IC50 of 23 µM.
To `O=C(CO)Nc1ccc2ncn(CCNC(=O)c3ccccc3C(F)(F)F)c(=O)c2c1` [compound 69, N-(2-(6-(2-hydroxyacetamido)-4-oxoquinazolin-3(4H)-yl)ethyl)-2-(trifluoromethyl)benzamide] belongs 5.2 µM.
To `O=C(CO)Nc1ccc2ncn(CCCOc3ccc(Cl)cc3)c(=O)c2c1` [compound 70, N-(3-(3-(4-chlorophenoxy)propyl)-4-oxo-3,4-dihydroquinazolin-6-yl)-2-hydroxyacetamide] belongs 3.1 µM; to `O=C(CO)Nc1ccc2ncn(CCNS(=O)(=O)c3cc(Cl)ccc3Cl)c(=O)c2c1` [compound 71, N-(3-(2-(2,5-dichlorophenylsulfonamido)ethyl)-4-oxo-3,4-dihydroquinazolin-6-yl)-2-hydroxyacetamide], 15 µM; to `O=C(CO)Nc1ccc2ncn(CCCNS(=O)(=O)c3cc(Cl)ccc3Cl)c(=O)c2c1` [compound 72, N-(3-(3-(2,5-dichlorophenylsulfonamido)propyl)-4-oxo-3,4-dihydroquinazolin-6-yl)-2-hydroxyacetamide], 21 µM.
With `O=C(CO)Nc1ccc2ncn(CCCNS(=O)(=O)c3ccccc3C(F)(F)F)c(=O)c2c1` [compound 73, 2-hydroxy-N-(4-oxo-3-(3-(2-(trifluoromethyl)phenylsulfonamido)propyl)-3,4-dihydroquinazolin-6-yl)acetamide], the IC50 amounted to 14 µM.
The compound `O=C(CO)Nc1ccc2ncn(CCOc3ccc(Cl)cc3)c(=O)c2c1` [compound 74, N-(3-(2-(4-chlorophenoxy)ethyl)-4-oxo-3,4-dihydroquinazolin-6-yl)-2-hydroxyacetamide] returned an IC50 of 17 µM.
`O=C(CO)Nc1ccc2ncn(CCOc3cccc(Cl)c3)c(=O)c2c1` [compound 75, N-(3-(2-(3-chlorophenoxy)ethyl)-4-oxo-3,4-dihydroquinazolin-6-yl)-2-hydroxyacetamide] yielded an IC50 of 1.5 µM.
To `Cc1ccccc1OCC(O)Cn1cnc2ccc(NC(=O)CO)cc2c1=O` (stereo not drawn) [compound 76, 2-hydroxy-N-(3-(2-hydroxy-3-(o-tolyloxy)propyl)-4-oxo-3,4-dihydroquinazolin-6-yl)acetamide] belongs 4 µM.
As to `O=C(Nc1cnc2ncn(Cc3ccc(Cl)c(Cl)c3)c(=O)c2c1)OCc1ccccc1` [compound 77, benzyl 3-(3,4-dichlorobenzyl)-4-oxo-3,4-dihydropyrido[2,3-d]pyrimidin-6-ylcarbamate], the IC50 was 0.36 µM.
